Assay results as given in patent publication US20260022142A1, “MACROCYCLIC IMMUNOMODULATORS” (Bristol-Myers Squibb Company, priority 2022, published 2026).
Bridge positions count the residues as written; N and C are the ends. Square brackets hold non-standard residues; d marks the D form. Peptide text beside a SMILES is read from it. * marks the point of attachment. Bip = N[C@@H](Cc1ccc(-c2ccccc2)cc1)C(=O)O; Phe(3-Me) = Cc1cccc(C[C@H](N)C(=O)O)c1; Cha = N[C@@H](CC1CCCCC1)C(=O)O; Carboxymethyl = O=C(O)C*; Orn = NCCC[C@H](N)C(=O)O; Aun = NCCCCCCCCCCC(=O)O; Dab = NCC[C@H](N)C(=O)O; Dap = NC[C@H](N)C(=O)O; AEEA = NCCOCCOCC(=O)O

Target: T1, PD-1/PD-L1 interaction (PE-labeled human PD-L1-Ig binding to Jurkat cell line over-expressing human PD-1) (Homo sapiens, UniProt Q15116)
T1 construct: expressed in transfected cells; host or cells: Jurkat
Experiment: Jurkat-PD-1 Cell Binding High-Content Screening Assay (CBA)
Assay type: cell-based
Details: Jurkat cell line over-expressing human PD-1; PE-labeled PD-L1-Ig 20 nM final; read-out: Jurkat hPD1-PDL1 IC50
Summary of the method: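 Read-out is high-content imaging of cell-bound phycoerythrin-tagged PD-L1-Ig on fixed, Hoechst-counterstained Jurkat cells that over-express human PD-1. Compound exposure lasts 2 h at 37° C before the labeled ligand (20 nM final) is added for a further hour.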

T1 sequence (Q15116 25-288): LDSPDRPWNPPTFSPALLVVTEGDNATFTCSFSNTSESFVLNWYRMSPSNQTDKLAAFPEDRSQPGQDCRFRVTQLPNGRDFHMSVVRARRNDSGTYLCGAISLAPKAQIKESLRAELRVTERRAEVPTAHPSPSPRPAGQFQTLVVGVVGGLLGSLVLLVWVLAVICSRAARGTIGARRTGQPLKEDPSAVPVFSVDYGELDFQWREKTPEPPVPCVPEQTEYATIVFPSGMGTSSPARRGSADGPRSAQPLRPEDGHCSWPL

SMILES	IC50 [nM]
Cc1cccc(C[C@@H]2NC(=O)[C@H](CC(=O)O)NC(=O)[C@H](Cc3ccc(OCC(=O)O)cc3)NC(=O)[C@H](CN)NC(=O)CSC[C@@H](C(=O)NCCCCCCCCCCC(=O)O)NC(=O)[C@H](CCCN)NC(=O)[C@H](C(C)C)NC(=O)[C@H](CC3CCCCC3)NC(=O)[C@H](CCN)NC(=O)[C@@H](CC(C)C)NC(=O)[C@H](CCCN)NC(=O)[C@H](Cc3ccc(O)cc3)NC(=O)[C@H](Cc3ccc(-c4ccccc4)cc3)NC(=O)[C@H](Cc3ccc(O)cc3)NC2=O)c1 [Compound 2693] ({CH2CO}-[Dap]Y(Carboxymethyl)D[Phe(3-Me)]Y[Bip]Y[Orn][dL][Dab][Cha]V[Orn]C[Aun]-OH; thioether N-14)	13
Cc1cccc(C[C@@H]2NC(=O)[C@H](CC(=O)O)NC(=O)[C@H](Cc3ccc(OCC(=O)O)cc3)NC(=O)[C@H](CN)NC(=O)CSC[C@@H](C(=O)NCCCCCCCCCCC(=O)O)NC(=O)[C@H](CCCN)NC(=O)[C@H](C(C)C)NC(=O)[C@H](CC3CCCCC3)NC(=O)[C@H](CCN)NC(=O)[C@@H](CC(C)C)NC(=O)[C@H](CCCN)NC(=O)[C@H](Cc3ccc(O)cc3)NC(=O)[C@H](Cc3ccc(-c4ccccc4)cc3)NC(=O)[C@H](C(C)C)NC2=O)c1 [Compound 2694] ({CH2CO}-[Dap]Y(Carboxymethyl)D[Phe(3-Me)]V[Bip]Y[Orn][dL][Dab][Cha]V[Orn]C[Aun]-OH; thioether N-14)	9.9
Cc1cccc(C[C@@H]2NC(=O)[C@H](CC(=O)O)NC(=O)[C@H](Cc3ccc(O)cc3)NC(=O)[C@H](CC(N)=O)NC(=O)CSC[C@@H](C(=O)N[C@@H](CCN)C(=O)NCCOCCOCC(=O)NCCCCCCCCCCC(=O)O)NC(=O)[C@H](CCCN)NC(=O)[C@H](C(C)C)NC(=O)[C@H](CC3CCCCC3)NC(=O)[C@H](CCN)NC(=O)[C@@H](CC(C)C)NC(=O)[C@H](CCCN)NC(=O)[C@H](Cc3ccc(O)cc3)NC(=O)[C@H](Cc3ccc(-c4ccccc4)cc3)NC(=O)[C@H](C(C)C)NC2=O)c1 [Compound 2695] ({CH2CO}-NYD[Phe(3-Me)]V[Bip]Y[Orn][dL][Dab][Cha]V[Orn]C[Dab][AEEA][Aun]-OH; thioether N-14)	5.1
Cc1cccc(C[C@@H]2NC(=O)[C@H](CC(=O)O)NC(=O)[C@H](Cc3ccc(O)cc3)NC(=O)[C@H](CC(N)=O)NC(=O)CSC[C@@H](C(=O)N[C@@H](CCN)C(=O)NCCCCCCCCCCC(=O)O)NC(=O)[C@H](CCCN)NC(=O)[C@H](C(C)C)NC(=O)[C@H](CC3CCCCC3)NC(=O)[C@H](CCN)NC(=O)[C@@H](CC(C)C)NC(=O)[C@H](CCCN)NC(=O)[C@H](Cc3ccc(O)cc3)NC(=O)[C@H](Cc3ccc(-c4ccccc4)cc3)NC(=O)[C@H](C(C)C)NC2=O)c1 [Compound 2696] ({CH2CO}-NYD[Phe(3-Me)]V[Bip]Y[Orn][dL][Dab][Cha]V[Orn]C[Dab][Aun]-OH; thioether N-14)	19.1
Cc1cccc(C[C@@H]2NC(=O)[C@H](CC(=O)O)NC(=O)[C@H](Cc3ccc(OCC(=O)O)cc3)NC(=O)[C@H](CC(N)=O)NC(=O)CSC[C@@H](C(=O)N[C@@H](CCN)C(=O)NCCOCCOCC(=O)NCCCCCCCCCCC(=O)O)NC(=O)[C@H](CCCN)NC(=O)[C@H](C(C)C)NC(=O)[C@H](CC3CCCCC3)NC(=O)[C@H](CCN)NC(=O)[C@@H](CC(C)C)NC(=O)[C@H](CCCN)NC(=O)[C@H](Cc3ccc(O)cc3)NC(=O)[C@H](Cc3ccc(-c4ccccc4)cc3)NC(=O)[C@H](C(C)C)NC2=O)c1 [Compound 2697] ({CH2CO}-NY(Carboxymethyl)D[Phe(3-Me)]V[Bip]Y[Orn][dL][Dab][Cha]V[Orn]C[Dab][AEEA][Aun]-OH; thioether N-14)	4.9
